Experimental findings from PMC6278857, “Anaerobic Degradation of the Plant Sugar Sulfoquinovose Concomitant With H2S Production: Escherichia coli K-12 and Desulfovibrio sp. Strain DF1 as Co-culture Model” (Frontiers in Microbiology, 2018) are described below.

In this assay the test system is T1, DhpA (DHPS dehydrogenase).
T1 construct: full-length gene, N-terminal His-tag (pET28a), from E. coli Rosetta 2 DE3
Nature of the assay: initial rate of NADH formation at […] nm. The format is biochemical, Desulfovibrio sp. DF1. Particulars: 10 mM NAD+, 50 mM Tris-HCl, pH 9.5; racemic substrate; read-out: Kmapp.

On to `O=S(=O)(O)CC(O)CO` (racemic) [DHPS], for which the Km was 36 ± 4 µM.
